# Laboratory results from PMC6111440, “Cyclin-Dependent Kinase (CDK) Inhibitors: Structure–Activity Relationships and Insights into the CDK-2 Selectivity of 6-Substituted 2-Arylaminopurines” (Journal of Medicinal Chemistry, 2016).
# Where two headings read alike, the source gives them in different places.
# Assays:
# CDK9/T [1] = molecular target: T1, CDK9/T (Homo sapiens, UniProt P50750)
# Procedure: (§1) Human CDK1/B was purchased from New England Biolabs or prepared as described,[46] CDK2/A2 was prepared as described,[46] CDK4/D was provided by AstraZeneca, and CDK7/H and CDK9/T were purchased from Upstate. IC50 values for CDK1/B, CDK2/A, and CDK4/D were determined as described.[23] IC50 values for CDK7/H and CDK9/H were determined according to the supplier’s instructions (Upstate).
# CDK2/A [2] = molecular target: T2, CDK2/A (Homo sapiens, UniProt P24941)
# Procedure: as §1
# CDK7/H [3] = molecular target: T3, CDK7/H (Homo sapiens, UniProt P50613)
# Procedure: as §1
# Human CDK1/B [4] = molecular target: T4, Human CDK1/B (Homo sapiens, UniProt P06493)
# Procedure: as §1
# CDK2/A [5] = molecular target: T2, CDK2/A; assay: biochemical
# Procedure: as §1
# CDK4/D = CDK4/D (Homo sapiens, UniProt P11802); assay: biochemical; details: for inhibition at 100 µM: read-out: CDK4/D % inhibition at 100 μM; for inhibition at 10 µM: read-out: CDK4 Inhibition at 10 μM (%)
# Procedure: as §1
# [6] = test system: Rb-proficient human tumor cell lines (A375, Calu-6, MDA-MB-231, SJSA1, SKUT-1B); assay: 5-day growth inhibition SRB assay; details: for GI50: Homo sapiens, 120 h
# Procedure: Dose–response curves and GI50 bar charts represent the mean ± SEM from three or four independent experiments.
# The ability of selected compounds to inhibit cell growth was assessed in a panel of human cancer cell lines using an SRB assay.[45] […] At least three independent experiments were performed. Growth inhibitory GI50 values were calculated using GraphPad Prism software (GraphPad Software, Inc., San Diego, CA).
# CDK7/H [7] = molecular target: T3, CDK7/H; assay: biochemical; details: for inhibition at 10 µM: read-out: CDK7 Inhibition at 10 μM (%)
# Procedure: as §1
# CDK9/T [8] = molecular target: T1, CDK9/T; assay: biochemical; details: read-out: CDK9 Inhibition at 10 μM (%)
# Procedure: as §1
# CDK5 [9] = molecular target: T5, CDK5 (Homo sapiens, UniProt Q00535); assay: biochemical; details: read-out: CDK5 Inhibition at 10 μM (%)
# Human CDK1/B [10] = molecular target: T4, Human CDK1/B; assay: biochemical; details: read-out: CDK1 Inhibition at 10 μM (%)
# Procedure: as §1
# CDK5 [11] = molecular target: T5, CDK5; details: read-out: CDK5 Inhibitory Activity IC50; Table 3
# [12] = read-out: CDK9/T IC50, Table 2, ATP 100 μM
# [13] = read-out: CDK2 Inhibition IC50, Table 1, ATP 12.5 μM
# [14] = read-out: CDK7/H IC50, Table 2, ATP 100 μM
# [15] = read-out: CDK1/B IC50, Table 2, ATP 12.5 μM
# [16] = read-out: CDK2 Inhibitory Activity IC50, Table 3
# [17] = read-out: CDK1 Inhibitory Activity IC50, Table 3
# [18] = read-out: CDK9 Inhibitory Activity IC50, Table 3
# [19] = read-out: CDK7 Inhibitory Activity IC50, Table 3
# [20] = read-out: CDK2 Inhibition at 10 μM (%)
# CDK4/D, sequence (P11802 whole entry): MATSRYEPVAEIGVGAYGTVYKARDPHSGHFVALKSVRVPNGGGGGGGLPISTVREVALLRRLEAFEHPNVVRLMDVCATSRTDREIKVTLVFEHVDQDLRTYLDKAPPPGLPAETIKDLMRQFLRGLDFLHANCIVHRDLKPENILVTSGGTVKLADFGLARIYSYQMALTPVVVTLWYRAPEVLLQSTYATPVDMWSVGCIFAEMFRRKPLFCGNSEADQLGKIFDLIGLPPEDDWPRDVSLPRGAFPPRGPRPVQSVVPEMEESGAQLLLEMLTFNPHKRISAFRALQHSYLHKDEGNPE
# CDK4/D, sequence (P24385 whole entry partner): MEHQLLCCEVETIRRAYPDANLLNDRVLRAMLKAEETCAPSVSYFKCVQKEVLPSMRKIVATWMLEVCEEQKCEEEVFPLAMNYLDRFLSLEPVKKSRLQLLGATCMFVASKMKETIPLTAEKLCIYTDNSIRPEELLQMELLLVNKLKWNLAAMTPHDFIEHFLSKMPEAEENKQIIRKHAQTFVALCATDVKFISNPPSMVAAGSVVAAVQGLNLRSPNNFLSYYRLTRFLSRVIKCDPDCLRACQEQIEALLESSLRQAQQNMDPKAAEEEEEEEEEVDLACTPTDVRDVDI
# T4 sequence (P06493 whole entry): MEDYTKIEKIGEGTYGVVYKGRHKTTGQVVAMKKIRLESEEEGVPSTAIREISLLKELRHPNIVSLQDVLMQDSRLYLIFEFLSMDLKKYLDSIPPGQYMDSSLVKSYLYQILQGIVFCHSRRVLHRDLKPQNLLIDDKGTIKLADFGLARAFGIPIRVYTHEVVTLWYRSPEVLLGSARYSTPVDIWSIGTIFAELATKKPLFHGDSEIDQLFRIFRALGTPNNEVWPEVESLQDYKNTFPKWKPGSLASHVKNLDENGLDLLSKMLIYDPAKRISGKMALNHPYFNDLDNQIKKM
# T4 sequence (P14635 whole entry partner): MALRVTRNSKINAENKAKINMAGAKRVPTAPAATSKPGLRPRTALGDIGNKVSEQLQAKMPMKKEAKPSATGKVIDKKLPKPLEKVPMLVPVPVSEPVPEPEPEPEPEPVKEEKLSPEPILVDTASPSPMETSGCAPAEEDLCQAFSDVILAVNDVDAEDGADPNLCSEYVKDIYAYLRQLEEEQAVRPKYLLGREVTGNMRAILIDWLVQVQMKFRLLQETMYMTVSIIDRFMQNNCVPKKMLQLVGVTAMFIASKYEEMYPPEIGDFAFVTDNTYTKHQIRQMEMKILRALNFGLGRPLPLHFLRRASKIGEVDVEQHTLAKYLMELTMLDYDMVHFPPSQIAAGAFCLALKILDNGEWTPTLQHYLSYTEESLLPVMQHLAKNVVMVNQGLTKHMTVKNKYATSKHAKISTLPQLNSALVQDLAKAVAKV
# T1 sequence (P50750 whole entry): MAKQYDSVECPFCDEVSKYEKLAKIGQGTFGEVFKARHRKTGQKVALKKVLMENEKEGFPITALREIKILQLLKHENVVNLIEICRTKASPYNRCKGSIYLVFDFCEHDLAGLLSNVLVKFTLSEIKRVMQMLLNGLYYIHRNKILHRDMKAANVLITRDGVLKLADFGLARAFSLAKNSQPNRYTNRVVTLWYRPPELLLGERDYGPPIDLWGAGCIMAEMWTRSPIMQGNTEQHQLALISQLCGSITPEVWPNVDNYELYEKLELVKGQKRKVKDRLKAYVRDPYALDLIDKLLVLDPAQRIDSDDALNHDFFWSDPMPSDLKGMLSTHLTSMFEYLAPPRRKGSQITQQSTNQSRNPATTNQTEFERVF
# T1 sequence (O60563 whole entry partner): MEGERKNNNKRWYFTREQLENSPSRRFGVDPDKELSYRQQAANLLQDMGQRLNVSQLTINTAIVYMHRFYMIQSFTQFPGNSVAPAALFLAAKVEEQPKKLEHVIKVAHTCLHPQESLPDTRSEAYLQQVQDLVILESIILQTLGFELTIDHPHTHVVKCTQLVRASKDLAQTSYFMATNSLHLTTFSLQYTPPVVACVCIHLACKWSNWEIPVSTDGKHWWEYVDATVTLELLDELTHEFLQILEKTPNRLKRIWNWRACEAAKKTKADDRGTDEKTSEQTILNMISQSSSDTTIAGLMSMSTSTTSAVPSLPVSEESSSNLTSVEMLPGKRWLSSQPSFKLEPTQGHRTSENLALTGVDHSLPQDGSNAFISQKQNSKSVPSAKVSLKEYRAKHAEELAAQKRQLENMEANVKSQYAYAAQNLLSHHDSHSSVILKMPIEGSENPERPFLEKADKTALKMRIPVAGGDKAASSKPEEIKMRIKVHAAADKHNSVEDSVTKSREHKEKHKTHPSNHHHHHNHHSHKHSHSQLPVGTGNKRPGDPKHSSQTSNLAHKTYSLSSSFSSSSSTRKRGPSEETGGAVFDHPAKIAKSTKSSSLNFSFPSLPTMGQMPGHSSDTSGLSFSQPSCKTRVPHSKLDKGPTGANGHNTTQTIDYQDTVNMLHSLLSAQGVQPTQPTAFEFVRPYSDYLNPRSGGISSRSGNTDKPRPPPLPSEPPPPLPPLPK
# T3 sequence (P50613 whole entry): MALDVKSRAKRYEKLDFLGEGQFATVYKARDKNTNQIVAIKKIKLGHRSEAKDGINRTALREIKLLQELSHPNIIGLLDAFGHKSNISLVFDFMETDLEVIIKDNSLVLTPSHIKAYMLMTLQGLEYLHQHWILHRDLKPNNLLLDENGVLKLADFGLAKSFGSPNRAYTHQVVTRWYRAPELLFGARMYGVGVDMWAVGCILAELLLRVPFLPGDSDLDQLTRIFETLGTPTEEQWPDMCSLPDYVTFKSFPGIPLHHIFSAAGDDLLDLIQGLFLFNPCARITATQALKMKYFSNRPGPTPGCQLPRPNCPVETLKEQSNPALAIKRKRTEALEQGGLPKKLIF
# T3 sequence (P51946 whole entry partner): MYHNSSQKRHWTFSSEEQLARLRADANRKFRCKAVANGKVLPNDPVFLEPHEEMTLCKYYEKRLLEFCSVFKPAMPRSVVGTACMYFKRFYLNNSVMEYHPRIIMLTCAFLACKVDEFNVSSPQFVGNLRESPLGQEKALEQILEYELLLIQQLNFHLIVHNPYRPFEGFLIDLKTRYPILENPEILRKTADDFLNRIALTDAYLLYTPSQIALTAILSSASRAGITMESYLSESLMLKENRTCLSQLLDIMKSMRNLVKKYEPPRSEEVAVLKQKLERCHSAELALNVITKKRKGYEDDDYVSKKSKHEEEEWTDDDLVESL
# T3 sequence (P51948 whole entry partner): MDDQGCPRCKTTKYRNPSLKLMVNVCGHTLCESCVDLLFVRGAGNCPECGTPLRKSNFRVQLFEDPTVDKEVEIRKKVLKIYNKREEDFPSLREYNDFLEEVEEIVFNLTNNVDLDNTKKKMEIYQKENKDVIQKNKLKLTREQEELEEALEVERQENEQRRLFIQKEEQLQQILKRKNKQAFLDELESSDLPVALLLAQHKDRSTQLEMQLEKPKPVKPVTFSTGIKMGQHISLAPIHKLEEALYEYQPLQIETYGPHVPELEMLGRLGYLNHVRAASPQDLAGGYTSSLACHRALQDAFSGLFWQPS
# T5 sequence (Q00535 whole entry, species assumed): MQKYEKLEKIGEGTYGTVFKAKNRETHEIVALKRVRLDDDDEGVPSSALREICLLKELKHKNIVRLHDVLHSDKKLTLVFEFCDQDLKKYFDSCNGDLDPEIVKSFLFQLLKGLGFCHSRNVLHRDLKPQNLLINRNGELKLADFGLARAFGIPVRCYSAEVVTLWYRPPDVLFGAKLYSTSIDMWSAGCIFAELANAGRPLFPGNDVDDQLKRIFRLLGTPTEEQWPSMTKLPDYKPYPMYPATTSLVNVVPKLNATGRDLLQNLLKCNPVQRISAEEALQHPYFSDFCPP
# T5 sequence (Q15078 99-307 partner limits assumed, species assumed): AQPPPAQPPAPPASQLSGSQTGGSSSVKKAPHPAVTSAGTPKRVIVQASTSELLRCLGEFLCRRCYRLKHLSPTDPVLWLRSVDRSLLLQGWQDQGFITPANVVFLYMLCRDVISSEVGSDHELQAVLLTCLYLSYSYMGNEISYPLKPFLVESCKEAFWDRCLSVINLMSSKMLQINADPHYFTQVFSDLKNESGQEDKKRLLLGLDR
smiles,measurement,setting,value
CCC(C)Oc1nc(Nc2ccc(S(N)(=O)=O)cc2)nc2[nH]cnc12 (racemic) [Compound 34],IC50,CDK9/T [1]; [12],570 ± 50 nM
same,IC50,"CDK2/A [2]; read-out: CDK2/A IC50, Table 2, ATP 12.5 μM",1.2 ± 0.5 nM
same,IC50,CDK2/A [2]; [13],1 ± 0.5 nM
same,IC50,CDK7/H [3]; [14],2800 ± 100 nM
same,IC50,Human CDK1/B [4]; [15],97 ± 40 nM
"Nc1nc2ncnc-2c[nH]1 [Compound 8, 2-Aminopurine, reference compound]",inhibition at 100 µM,CDK2/A [5]; read-out: CDK2 Inhibition (%) at 100 μM,4%
"c1ccc(Nc2ncc3nc[nH]c3n2)cc1 [Compound 12, Phenyl-(9H-purin-2-yl)amine]",IC50,CDK2/A [2]; [13],61000 ± 100 nM
"NS(=O)(=O)c1ccc(Nc2ncc3nc[nH]c3n2)cc1 [Compound 13, 4-(9H-Purin-2-ylamino)benzenesulfonamide]",IC50,CDK9/T [1]; [12],38000 ± 11000 nM
same,fold less active/potent than 3 against CDK2,CDK2/A [2]; compared with 3,~300 fold
same,IC50,CDK2/A [2]; [13],1500 ± 100 nM
same,IC50,CDK7/H [3]; [14],75000 ± 3000 nM
same,IC50,Human CDK1/B [4]; [15],15800 ± 1200 nM
same,inhibition at 100 µM,CDK4/D,12%
"CC(C)[Si](C#Cc1nc(Nc2ccc(S(N)(=O)=O)cc2)nc2[nH]cnc12)(C(C)C)C(C)C [Compound 40, 4-(6-((Triisopropylsilyl)ethynyl)-9H-purin-2-ylamino)benzenesulfonamide]",IC50,CDK2/A [2]; [13],17 ± 1 nM
"CC#Cc1nc(Nc2ccccc2)nc2[nH]cnc12 [Compound 48, N-Phenyl-6-(prop-1-yn-1-yl)-9H-purin-2-amine]",IC50,CDK2/A [2]; [13],6400 ± 400 nM
"C(#Cc1nc(Nc2ccccc2)nc2[nH]cnc12)c1ccccc1 [Compound 49, N-Phenyl-6-(phenylethynyl)-9H-purin-2-amine]",IC50,CDK2/A [2]; [13],8900 ± 700 nM
"CCc1nc(Nc2ccc(S(N)(=O)=O)cc2)nc2[nH]cnc12 [Compound 52, 4-(6-Ethyl-9H-purin-2-ylamino)benzenesulfonamide]",fold reduction of CDK2-inhibitory activity compared with 30,CDK2/A [2]; compared with 6-ethoxypurine 30,~10 fold
same,IC50,CDK2/A [2]; [13],220 ± 3 nM
"NS(=O)(=O)c1ccc(Nc2nc(C3CC3)c3nc[nH]c3n2)cc1 [Compound 55, 4-(6-Cyclopropyl-9H-purin-2-ylamino)benzenesulfonamide]",IC50,CDK2/A [2]; [13],19 ± 1 nM
"NS(=O)(=O)c1ccc(Nc2nc(-c3ccccc3)c3nc[nH]c3n2)cc1 [Compound 70, 4-(6-Phenyl-9H-purin-2-ylamino)benzenesulfonamide]",IC50,CDK9/T [1]; [12],570 ± 40 nM
same,IC50,CDK2/A [2]; [13],24 ± 2 nM
same,IC50,CDK7/H [3]; [14],6800 ± 400 nM
same,IC50,Human CDK1/B [4]; [15],730 ± 3 nM
"COc1cccc(-c2nc(Nc3ccc(S(N)(=O)=O)cc3)nc3[nH]cnc23)c1 [Compound 71, 4-(6-(3-Methoxyphenyl)-9H-purin-2-ylamino)benzenesulfonamide]",IC50,CDK2/A [2]; [13],39 ± 13 nM
"COc1ccc(-c2nc(Nc3ccc(S(N)(=O)=O)cc3)nc3[nH]cnc23)cc1 [Compound 72, 4-(6-(4-Methoxyphenyl)-9H-purin-2-ylamino)benzenesulfonamide]",IC50,CDK2/A [2]; [13],52 ± 4 nM
"NS(=O)(=O)c1ccc(Nc2nc(-c3cccc(-c4ccccc4)c3)c3nc[nH]c3n2)cc1 [Compound 73, 4-((6-([1,1′-Biphenyl]-3-yl)-9H-purin-2-yl)amino)benzenesulfonamide]",effect on the growth of cells,"[6]; maximal concentration tested 30 μM, 5-day growth assay, GI50 could not be determined",no or limited effects
same,IC50,CDK9/T [1]; [12],25000 ± 8000 nM
same,selectivity for CDK2 over CDK1,CDK2/A [2]; ratio of CDK1 and CDK2 IC50,~2000 fold
same,IC50,CDK2/A [2]; [13],44 ± 12 nM
same,IC50,Human CDK1/B [4]; [15],86000 ± 4000 nM
same,inhibition at 100 µM,CDK7/H [7]; read-out: CDK7/H % inhibition at 100 μM,28%
same,inhibition at 100 µM,CDK4/D,26%
"NS(=O)(=O)c1ccc(Nc2nc(-c3ccc4c(c3)OCO4)c3nc[nH]c3n2)cc1 [Compound 74, 4-(6-(Benzo[d][1,3]dioxol-5-yl)-9H-purin-2-ylamino)benzenesulfonamide]",fold less potent than 70 (CDK2),CDK2/A [2]; compared with 70,~20 fold
same,IC50,CDK2/A [2]; [13],580 ± 20 nM
"NS(=O)(=O)c1ccc(Nc2nc(-c3cccc4c3oc3ccccc34)c3nc[nH]c3n2)cc1 [Compound 75, 4-(6-(4-Dibenzofuryl)-9H-purin-2-ylamino)benzenesulfonamide]",IC50,CDK2/A [2]; [13],1400 ± 200 nM
NS(=O)(=O)c1ccc(Nc2nc(-c3cccc4c3Sc3ccccc3S4)c3nc[nH]c3n2)cc1 [Compound 76],IC50,CDK2/A [2]; [13],6700 ± 500 nM
"Nc1cc(OCC2CCCCC2)c2nc[nH]c2n1 [Compound 80, 7-(Cyclohexylmethoxy)-3H-imidazo[4,5-b]pyridin-5-amine]",IC50,CDK2/A [2]; [16],28400 ± 800 nM
"NS(=O)(=O)c1ccc(Nc2cc(OCC3CCCCC3)c3nc[nH]c3n2)cc1 [Compound 83, 4-((7-(Cyclohexylmethoxy)-3H-imidazo[4,5-b]pyridin-5-yl)amino) benzenesulfonamide]",inhibition at 10 µM,CDK9/T [8],42%
same,IC50,CDK2/A [2]; [16],290 ± 10 nM
same,inhibition at 10 µM,CDK5 [9],37%
same,IC50,Human CDK1/B [4]; [17],11000 ± 2000 nM
same,inhibition at 10 µM,CDK7/H [7],37%
same,inhibition at 10 µM,CDK4/D,23 ± 1%
"Nc1nc(OCC2CCCCC2)c2nn[nH]c2n1 [Compound 86, 7-(Cyclohexylmethoxy)-3H-[1,2,3]triazolo[4,5-d]pyrimidin-5-amine]",inhibition at 10 µM,CDK9/T [8],16%
same,IC50,CDK2/A [2]; [16],18000 ± 1000 nM
same,inhibition at 10 µM,CDK5 [9],13%
same,inhibition at 10 µM,Human CDK1/B [10],21%
same,inhibition at 10 µM,CDK7/H [7],13%
same,inhibition at 10 µM,CDK4/D,6.2%
"Nc1nc(OCC2CCCCC2)c2cn[nH]c2n1 [Compound 87, 4-(Cyclohexylmethoxy)-1H-pyrazolo[3,4-d]pyrimidin-6-amine]",inhibition at 10 µM,CDK9/T [8],16%
same,IC50,CDK2/A [2]; [16],16000 ± 4000 nM
same,inhibition at 10 µM,CDK5 [9],14%
same,inhibition at 10 µM,Human CDK1/B [10],32%
same,inhibition at 10 µM,CDK7/H [7],16%
same,inhibition at 10 µM,CDK4/D,0%
"NS(=O)(=O)c1ccc(Nc2nc(OCC3CCCCC3)c3nn[nH]c3n2)cc1 [Compound 90, 4-((7-(Cyclohexylmethoxy)-3H-[1,2,3]triazolo[4,5-d]pyrimidin-5-yl)amino) benzenesulfonamide]",IC50,CDK9/T [1]; [18],750 ± 30 nM
same,IC50,CDK2/A [2]; [16],2 ± 0.1 nM
same,IC50,CDK7/H [3]; [19],6800 ± 700 nM
same,IC50,CDK5 [11],3300 ± 200 nM
same,IC50,Human CDK1/B [4]; [17],750 ± 60 nM
"NS(=O)(=O)c1ccc(Nc2nc(OCC3CCCCC3)c3cn[nH]c3n2)cc1 [Compound 91, 4-((4-(Cyclohexylmethoxy)-1H-pyrazolo[3,4-d]pyrimidin-6-yl)amino)benzenesulfonamide]",GI50,[6],1000 to 22000 nM
same,IC50,CDK9/T [1]; [18],4600 ± 200 nM
same,IC50,CDK7/H [3]; [19],7000 ± 300 nM
same,IC50,CDK5 [11],5900 ± 100 nM
"Nc1nc(OCC2CCCCC2)c2cc[nH]c2n1 [Compound 93, 4-(Cyclohexylmethoxy)-7H-pyrrolo[2,3-d]pyrimidin-2-amine]",inhibition at 10 µM,CDK9/T [8],0%
same,inhibition at 10 µM,CDK2/A [5]; read-out: CDK2 Inhibition (%) at 10 uM,41 ± 10%
same,inhibition at 100 µM,"CDK2/A [5]; read-out: CDK2 Inhibition (%), value determined at 100 μM",41%
same,inhibition at 10 µM,CDK5 [9],12%
same,inhibition at 10 µM,Human CDK1/B [10],11%
same,inhibition at 10 µM,CDK7/H [7],5.1%
same,inhibition at 10 µM,CDK4/D,5.6%
"NS(=O)(=O)c1ccc(Nc2nc(OCC3CCCCC3)c3cc[nH]c3n2)cc1 [Compound 98, 4-((4-(Cyclohexylmethoxy)-7H-pyrrolo[2,3-d]pyrimidin-2-yl)amino)benzenesulfonamide]",GI50,[6],1000 to 22000 nM
same,IC50,CDK9/T [1]; [18],1000 ± 200 nM
same,IC50,CDK2/A [2]; [16],26 ± 1 nM
same,IC50,CDK7/H [3]; [19],4100 ± 200 nM
same,IC50,CDK5 [11],4400 ± 600 nM
same,IC50,Human CDK1/B [4]; [17],2700 ± 200 nM
"c1ccc(Nc2cc(OCC3CCCCC3)n3ccnc3n2)cc1 [Compound 101, 5-Cyclohexylmethoxy-7-anilinoimidazo[1,2-a]pyrimidine]",inhibition at 10 µM,CDK2/A [5]; [20],10%
"NS(=O)(=O)c1ccc(Nc2cc(OCC3CCCCC3)n3ccnc3n2)cc1 [Compound 102, 5-Cyclohexylmethoxy-7-(4′-sulfamoylanilino)imidazo[1,2-a]pyrimidine]",inhibition at 10 µM,CDK2/A [5]; [20],36%
